Results reported in ChEMBL document CHEMBL1201862, “PubChem BioAssay data set” (2004).
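Each compound was tested at five concentrations against cells in 96-well plates for 48 hours. The concentration for 50% growth inhibition is given as GI50.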 Active and inactive are the calls of the source. Cut-off read from the data, not from the text of the source: active = GI50 up to about 1.1 µM and inactive = higher.

Legend:
Test in all cases: DTP human tumour cell line panel, 48 h
SNB-19 = system: SNB-19
LOX IMVI = system: LOX IMVI
RPMI-8226 = system: RPMI-8226
SF-295 = system: SF-295
NCI-H522 = system: NCI-H522
OVCAR-3 = system: OVCAR-3
COLO 205 = system: COLO 205
SF-268 = system: SF-268
SN12C = system: SN12C
HCT-116 = system: HCT-116
SK-MEL-5 = system: SK-MEL-5
CCRF-CEM = system: CCRF-CEM
Malme-3M = system: Malme-3M
NCI-H460 = system: NCI-H460
UACC-257 = system: UACC-257
SNB-75 = system: SNB-75
SK-MEL-2 = system: SK-MEL-2
ACHN = system: ACHN
HOP-92 = system: HOP-92
PC-3 = system: PC-3

Measured: GI50

CCC12CCC(O)C1N(C)CCC2Sc1ccccc1 (stereo not given)
inactive: SNB-19 > 100 µM | LOX IMVI > 100 µM | RPMI-8226 59.3 µM | SF-295 76.2 µM | NCI-H522 > 100 µM | OVCAR-3 > 100 µM | COLO 205 80 µM | SF-268 75.5 µM | SN12C > 100 µM | HCT-116 70 µM | SK-MEL-5 33 µM | CCRF-CEM 77.4 µM | Malme-3M 35.2 µM | NCI-H460 > 100 µM | UACC-257 61.2 µM | SNB-75 24.8 µM | SK-MEL-2 > 100 µM | ACHN > 100 µM | HOP-92 28.6 µM

COC(=O)c1cc(/C=C/C(=O)Cc2ccccc2)cn1S(=O)(=O)c1ccccc1
inactive: SNB-19 > 100 µM | LOX IMVI > 100 µM | SF-295 > 100 µM | NCI-H522 > 100 µM | OVCAR-3 > 100 µM | COLO 205 > 100 µM | SF-268 > 100 µM | SN12C > 100 µM | HCT-116 > 100 µM | SK-MEL-5 > 100 µM | CCRF-CEM > 100 µM | Malme-3M > 100 µM | NCI-H460 > 100 µM | UACC-257 > 100 µM | PC-3 > 100 µM | SNB-75 > 100 µM | SK-MEL-2 > 100 µM | ACHN > 100 µM

Cc1ccc([S+]([O-])c2sccc2C=O)cc1 (stereo not given)
inactive: SNB-19 > 100 µM | LOX IMVI 14.4 µM | RPMI-8226 31 µM | SF-295 23.7 µM | NCI-H522 41.1 µM | OVCAR-3 > 10 µM | COLO 205 41 µM | SF-268 28.8 µM | SN12C 22.9 µM | HCT-116 16.4 µM | SK-MEL-5 29.1 µM | CCRF-CEM 20 µM | Malme-3M 23.4 µM | NCI-H460 21.9 µM | UACC-257 53.5 µM | PC-3 34 µM | SNB-75 33.9 µM | SK-MEL-2 43.6 µM | ACHN 63 µM

O=C1C2C3C=CC(C2C(=O)N1CO)C1C2C(=O)N(CO)C(=O)C2C31 (stereo not given)
inactive: SNB-19 > 100 µM | LOX IMVI > 45 µM | RPMI-8226 21.8 µM | SF-295 > 100 µM | NCI-H522 > 100 µM | OVCAR-3 > 92.9 µM | COLO 205 > 48.2 µM | SF-268 > 50.4 µM | SN12C > 69.8 µM | HCT-116 > 44.5 µM | SK-MEL-5 > 83 µM | CCRF-CEM 23.6 µM | Malme-3M > 100 µM | NCI-H460 27.9 µM | UACC-257 > 100 µM | SNB-75 70.8 µM | SK-MEL-2 > 100 µM | ACHN > 44.9 µM | HOP-92 > 100 µM

O=C1OC(c2ccccc2)=N/C1=C/NC(Cc1c[nH]c2ccccc12)C(=O)O (stereo not given)
inactive: SNB-19 > 100 µM | LOX IMVI > 100 µM | RPMI-8226 > 100 µM | SF-295 > 100 µM | NCI-H522 68.4 µM | OVCAR-3 > 100 µM | COLO 205 > 100 µM | SF-268 > 100 µM | SN12C > 100 µM | HCT-116 > 100 µM | SK-MEL-5 > 100 µM | CCRF-CEM > 100 µM | Malme-3M > 100 µM | NCI-H460 > 100 µM | UACC-257 > 100 µM | SNB-75 69.7 µM | SK-MEL-2 > 100 µM | ACHN > 100 µM | HOP-92 > 100 µM

NC1=NCC(CN2CCCCC2)O1 (stereo not given)
inactive: SNB-19 > 100 µM | LOX IMVI > 100 µM | RPMI-8226 > 100 µM | SF-295 > 100 µM | NCI-H522 > 100 µM | OVCAR-3 > 100 µM | COLO 205 > 100 µM | SF-268 > 100 µM | SN12C > 100 µM | HCT-116 > 100 µM | SK-MEL-5 > 100 µM | CCRF-CEM > 100 µM | Malme-3M > 100 µM | NCI-H460 > 100 µM | UACC-257 > 100 µM | PC-3 > 100 µM | SNB-75 > 100 µM | ACHN > 100 µM

O=c1cc(-c2ccc(Cl)cc2)oc2cc(OCCCOc3ccc4c(=O)cc(-c5ccc(Cl)cc5)oc4c3)ccc12
inactive: SNB-19 > 100 µM | LOX IMVI > 100 µM | RPMI-8226 > 100 µM | SF-295 > 100 µM | NCI-H522 > 100 µM | OVCAR-3 > 100 µM | COLO 205 > 100 µM | SF-268 > 100 µM | SN12C > 100 µM | HCT-116 > 100 µM | SK-MEL-5 > 100 µM | CCRF-CEM > 100 µM | Malme-3M > 100 µM | NCI-H460 > 100 µM | UACC-257 > 100 µM | SNB-75 45.2 µM | SK-MEL-2 > 100 µM | ACHN > 100 µM | HOP-92 > 100 µM

CSc1nc(=O)n(CCC#N)nc1SC
inactive: SNB-19 > 100 µM | LOX IMVI 19.5 µM | RPMI-8226 22.8 µM | SF-295 > 100 µM | NCI-H522 25.6 µM | OVCAR-3 16.1 µM | COLO 205 19.5 µM | SF-268 27.9 µM | SN12C 47.9 µM | HCT-116 16.5 µM | SK-MEL-5 19.1 µM | Malme-3M 15.2 µM | NCI-H460 > 100 µM | UACC-257 > 10 µM | PC-3 66.5 µM | SNB-75 51.5 µM | SK-MEL-2 14.5 µM | ACHN 38.8 µM

CC1CC(=O)N2CCCNC2=C1C#N (stereo not given)
inactive: SNB-19 > 100 µM | LOX IMVI > 100 µM | RPMI-8226 > 100 µM | SF-295 > 100 µM | NCI-H522 > 100 µM | OVCAR-3 > 100 µM | COLO 205 > 100 µM | SF-268 > 100 µM | SN12C > 100 µM | HCT-116 > 100 µM | SK-MEL-5 > 100 µM | CCRF-CEM > 100 µM | Malme-3M > 100 µM | NCI-H460 > 100 µM | UACC-257 > 100 µM | PC-3 > 100 µM | SNB-75 > 100 µM | SK-MEL-2 > 100 µM

N#Cc1c(C#N)c(-c2ccccc2)n(Cc2ccccc2)c1N
inactive: SNB-19 29.6 µM | LOX IMVI > 100 µM | RPMI-8226 > 100 µM | SF-295 > 100 µM | NCI-H522 > 100 µM | OVCAR-3 > 100 µM | COLO 205 > 100 µM | SF-268 47.2 µM | SN12C > 100 µM | HCT-116 > 100 µM | SK-MEL-5 > 100 µM | CCRF-CEM > 100 µM | Malme-3M > 100 µM | UACC-257 > 100 µM | PC-3 > 100 µM | SNB-75 14.4 µM | SK-MEL-2 > 100 µM | ACHN > 100 µM

O=[N+]([O-])c1nccn1COCCF
inactive: SNB-19 > 100 µM | LOX IMVI > 100 µM | RPMI-8226 > 100 µM | SF-295 > 100 µM | NCI-H522 > 100 µM | OVCAR-3 > 100 µM | COLO 205 > 100 µM | SF-268 > 100 µM | SN12C > 100 µM | HCT-116 > 100 µM | SK-MEL-5 > 100 µM | CCRF-CEM > 100 µM | Malme-3M > 100 µM | NCI-H460 > 100 µM | UACC-257 > 100 µM | SNB-75 64.6 µM | SK-MEL-2 > 100 µM | ACHN > 100 µM | HOP-92 > 100 µM

CCCSc1cc(Cl)c(C)cc1S(=O)(=O)n1ccnc1OCCCN(C)C
inactive: SNB-19 > 100 µM | LOX IMVI > 100 µM | SF-295 > 100 µM | NCI-H522 > 100 µM | OVCAR-3 > 100 µM | COLO 205 > 100 µM | SF-268 > 100 µM | SN12C > 100 µM | HCT-116 > 100 µM | SK-MEL-5 > 100 µM | CCRF-CEM > 100 µM | Malme-3M > 100 µM | NCI-H460 > 100 µM | UACC-257 > 100 µM | PC-3 > 100 µM | SK-MEL-2 > 100 µM | ACHN > 100 µM

N#C/C(=C/C=C/c1ccco1)C(N)=O
inactive: LOX IMVI > 10 µM | SF-295 > 10 µM | NCI-H522 > 10 µM | OVCAR-3 > 10 µM | COLO 205 > 10 µM | SF-268 > 10 µM | SN12C > 10 µM | SK-MEL-5 > 10 µM | Malme-3M > 10 µM | NCI-H460 > 10 µM | PC-3 > 10 µM | SNB-75 > 10 µM | SK-MEL-2 > 10 µM | ACHN > 10 µM

CP(C)(=S)P(C)(C)=S
inactive: SNB-19 > 100 µM | LOX IMVI 4.37 µM | RPMI-8226 > 100 µM | SF-295 > 100 µM | NCI-H522 > 100 µM | COLO 205 > 100 µM | SF-268 > 100 µM | SN12C > 100 µM | HCT-116 > 100 µM | SK-MEL-5 > 100 µM | CCRF-CEM > 100 µM | Malme-3M > 100 µM | NCI-H460 > 100 µM | UACC-257 > 100 µM | PC-3 > 100 µM | SNB-75 > 100 µM | SK-MEL-2 > 100 µM | ACHN > 100 µM

O=C(CNC(=O)OCc1ccccc1)NCCCCC(NC(=O)OCc1ccccc1)C(=O)NC(CCCCNC(=O)CNC(=O)OCc1ccccc1)C(=O)OCc1ccccc1 (stereo not given)
inactive: SNB-19 > 62.5 µM | LOX IMVI > 62.5 µM | RPMI-8226 > 62.5 µM | NCI-H522 26.9 µM | OVCAR-3 > 62.5 µM | SF-268 > 62.5 µM | SN12C > 62.5 µM | HCT-116 > 62.5 µM | SK-MEL-5 > 62.5 µM | CCRF-CEM > 62.5 µM | Malme-3M > 62.5 µM | NCI-H460 > 62.5 µM | UACC-257 > 62.5 µM | PC-3 > 62.5 µM | SNB-75 > 62.5 µM | SK-MEL-2 > 62.5 µM | ACHN > 62.5 µM
